Where “and” joins values, the source holds several entries; their conditions need not be identical. Equal entries are not always repeated.
What was measured:
[1] = tested on: leptin, beta endorphin, cortisol; conditions: humans with alcohol dependence; cited from earlier work
[2] = tested on: youths with autistic disorder; experiment: 12-week single-blind placebo lead-in trial of acamprosate in youths with autistic disorder: behavioral outcome measures; assay type: in vivo, human
Experimental: One study was a 12-week single-blind, placebo-controlled trial of acamprosate in 12 youths with autistic disorder was conducted. The primary outcome measured was the Clinical Global Impression Improvement (CGI-I) scale with several additional behavioral secondary outcome measures employed. In this study, secreted amyloid precursor protein (sAPP) was measured pre- and post acamprosate treatment as blood biomarker assay Result: Twelve subjects (mean age=10.4 yrs.) entered the study and nine subjects completed a two week placebo lead-in and entered active treatment (mean final dose=1,073 mg/day). Six of nine (67%) subjects receiving acamprosate were judged treatment responders with a CGI-I score of 1 “very much improved” or 2 “much improved”. […] Among secondary outcome measures analyzed, significant acamprosate-associated improvement was noted on measures of social behavior and hyperactivity. Acamprosate use was also associated with reductions in sAPP levels.
The first project enrolled 12 youth aged 5 to 17 years with fragile X syndrome and comorbid ASD in a 10-week open-label trial of acamprosate. The second project enrolled 12 youth aged 5 to 17 years diagnosed with idiopathic ASD in a 12-week single-blind placebo lead-in study of acamprosate. In both projects, concomitant dosing of psychotropic drugs remained stable throughout study. In each project, pre- and post-acamprosate treatment plasma levels of sAPP total and sAPPα were obtained. All APP assay samples were collected, chilled, and walked within 2 hours of blood draw to the lab for analysis. Plasma sAPP total and sAPPα were determined separately in serum using the ELISA kit obtained from Immuno Biological Laboratories (IBL, Gumma, Japan). The ELISA kit is validated to measure levels of sAPPα in human samples and able to detect as low as 0.09 ng/ml of sAPPα in a typical sample, with only 0.3% cross-reactivity to sAPP. Levels of sAPP total and sAPPα in plasma were reported in nanograms per milliliter (ng/mL). Statistical analyses of pre- and post-acamprosate sAPP total and sAPPα levels were conducted using paired T-tests. Finally an exploratory post-hoc analysis of potential correlation between percent change in sAPP total or sAPPα and percent change in scores on the Aberrant Behavior Checklist Social Withdrawal/Lethargy subscale (ABC-SW) was conducted. The ABC-SW measures social impairment which is a core symptom domain of ASD. Post-hoc analysis was done with Spearman correlation calculations. All data was analyzed in IBM SPSS Version 20.
A 12-week single-blind, placebo-controlled trial of the effect of acamprosate in the treatment of 12 youths with autistic disorder aged 5 to 17 years was carried out. In order to pilot test use of acamprosate in youth with autism targeting core social impairment, was conducted. All subjects and their family members were blinded to treatment status. All subjects participated in a 2 week placebo-lead-in phase prior to 10 weeks of treatment with acamprosate. For this project, enteric coated commercially available 333 mg acamprosate pills were over-encapsulated and identical matching placebo manufactured for the project. Placebo-responders, defined by a Clinical Global Impressions Improvement scale (CGI-I) score of 1 “very much improved” or 2 “much improved” (ratings anchored to core social deficits) at week 2 were asked to exit the study. During active treatment with acamprosate, dosing was increased in 333 mg increments per week over the first six weeks of active treatment to a maximum dose of 1,332 mg/day (weight<5 60 kg) or 1,998 mg/day (weight>60 kg). During the final four weeks of active drug treatment, subjects were maintained on a stable highest tolerated (optimal) dose. The primary outcome measure was the clinician-rated CGI-I anchored to symptoms of social impairment. […]

[3] = safety measures and adverse effects in the FXS trial; assay type: in vivo, human
Description: Safety assessment and monitoring began at screen when all subjects underwent a medical history, physical examination, and full psychiatric interview. A physical examination was also completed at end point. Vital signs, including height and weight, were obtained at each study visit. At screen, genetic testing for FXS was obtained if record of molecular testing utilizing Southern Blot and PCR was not available. At screen, week 6, and endpoint, laboratory tests of blood and urine, including CBC with differential and platelets, electrolyte panel, liver associated enzymes, lipid panel, and urine pregnancy test (in females) were obtained. An electrocardiogram was also obtained at screen and endpoint.
The pilot study ran for 10 weeks. Safety lab screens were carried out at weeks 6 and 10. Physiologic parameters measured during the safety screens were as follows: vital signs, LFTs, electrolyte panels, CBC with diff/plts, lipid panel, glucose, urinalysis and ECG.
In-person clinical visits were scheduled for every two weeks. Telephonic evaluations were carried out at weeks 1, 3, and 5. Each subject was evaluated for side effects at every interaction with the practitioner.

[4] = tested on: NMDA glutamate receptor; conditions: animal studies; cited from earlier work
[5] = tested on: alcohol intake; conditions: mouse, in vivo; cited from earlier work
[6] = tested on: GABA(A); conditions: animal studies; cited from earlier work
[7] = tested on: ERK; experiment: striatum pERK/ERK in WT and fmr1 KO mice treated with acamprosate; assay type: in vivo; parameters: ERK / Total: unit not given here
Description: FIG. 4. Bar graph of pERK activity measured in WT and fmr1 KO mice treated with acamprosate
Referring now to FIG. 4. A summary of data collected using mouse models for ASD to measure the effect of acamprosate on the levels of ERK activity in wild-type and fmr1 (fragile X gene) Knock Out mice.

[8] = STRIATUM, KO Acam, individual mice, listed as Acam

## CC(=O)NCCCS(=O)(=O)O [Acamprosate, 3-Acetamidopropane-1-sulfonic acid]
[1]
  hormone levels: lowers levels of several hormones: leptin, beta endorphin, cortisol
[2]; idiopathic ASD, nine subjects receiving acamprosate, mean final dose 1,073 mg/day
  treatment responders (CGI-I score of 1 or 2): 67%
[2]; idiopathic ASD, nine subjects, last observation carried forward
  mean CGI-I at last visit: 2
[2]; idiopathic ASD, baseline 4.22+/-0.4, p=0.013
  CGI-S at endpoint: 3.7+/−0.5
[2]; idiopathic ASD, baseline 14.1+/-8.5, p=0.019
  ABC Lethargy/Social Withdrawal subscale (ABC-SW) at endpoint: 10.0+/−8.4
[2]; idiopathic ASD, baseline 25.4+/-12.6, p=0.005
  ABC Hyperactivity subscale at endpoint: 16.6+/−12.4
[2]; idiopathic ASD, baseline 29.5+/-10.4, p=0.002
  ADHD-RS at endpoint: 20.75+/−9.7
[2]; idiopathic ASD, baseline 107+/-28, p=0.002
  SRS total raw score at endpoint: 91.4+/−30
[2]; youth with idiopathic ASD
  youth judged responders to acamprosate (of those treated): 6 of 9
[3]; 10 weeks
  changes in lipids, electrolytes, liver function tests, or blood counts: no clinically significant or mean changes
  changes in weight, pulse, or blood pressure: No clinically significant changes
[3]; 12 subjects
  Increased body rocking (mild), Number of Patients: 1
  subjects who experienced a mild adverse event: 75%
[3]; 12 subjects, 10 weeks
  tolerability: well tolerated overall, with no severe or serious adverse effects
[3]; screen vs endpoint
  changes on ECG including QTc interval: No clinically significant changes were noted on ECG
[4]
  action at the NMDA glutamate receptor: bind and act as an antagonist at the NMDA glutamate receptor
[5]
  alcohol intake: reduced alcohol intake
[6]
  action at GABA(A): exhibits GABA(A) agonism
[7]; [8]
  A = ERK/Total: 1.31 and 1.57 and 2.78 and 2.43 and 2.19 and 2.25 and 1.71
  ERK: 24161 and 32570 and 26811 and 27464 and 25163 and 21441 and 25808
  Total: 18506 and 20784 and 9659 and 11290 and 11468 and 9535 and 15062
  pERK: 26311 and 37905 and 34961 and 25699 and 25451 and 19381 and 25020
  pERK/A: 20152.78 and 24188.44 and 12595.14 and 10564.44 and 11599.26 and 8618.90 and 14602.11
[7]; STRIATUM, KO Acam, individual mice, listed as acamp
  pERK/A: 20152.78 and 24188.44 and 12595.14 and 10564.44 and 11599.26 and 8618.90 and 14602.11
[7]; STRIATUM, KO acamp, WT sal 14455.22, KO sal 21048.75, T Test 0.96 vs WT, 0.20 vs KO sal
  pERK (group mean of pERK/A): 14617.30
[7]; fmr1 knockout animals
  effect on ERK activation in fmr1 knockout animals: restores activated ERK to wild-type levels

From US11733243B2, “Use of acamprosate to modulate ERK1/2 activation in animal models for FXS and ASD and individuals diagnosed with FXS and ASD” (Indiana University Research and Technology Corporation, priority 2013, dated 2023)
